Reference: US20230404980A1, “METHODS OF TREATING SPONDYLOARTHRITIS OR SYMPTOMS THEREOF” (UNIVERSITY HEALTH NETWORK, priority 2020, published 2023)

What was measured:
[1] = cited from earlier work
[2] = tested on: curdlan-treated SKG mice; experiment: Flow cytometry of immune cell populations from curdlan-treated SKG mice; type: in vivo, mouse
Procedure: (§1) Methods: Curdlan (β-glucan) or MIF-plasmid (mini-circle) treated SKG mice (8-10 weeks) were used as SpA mouse models. The expression of MIF in serum or tissues was measured by ELISA, quantitative PCR (qPCR), western blotting, immunohistochemistry (IHC) and/or immunofluorescence (IF). MIF knockout (KO) SKG mice were generated as MIF deficiency mice. MIF inhibitor (MIF098) was used to block the function of MIF in SpA mouse models to assess the therapeutic or prophylactic effects in a curdlan-treated SpA mouse model. Populations of immunological cells were assessed by flow cytometry. Anti-Gr-1 monoclonal antibody (mAb) or isotype control mAb was used to block the function of neutrophils or monocytes. Clinical scores, histopathology and microCT imaging were used to assess the severity of inflammation in the various tissues of the mouse models.
(§2) After 1 or 4 weeks post-curdlan treatment, we injected MIF antagonist (MIF098; 40 mg/kg, twice/day, i.p.) (23) or control vehicle [PEG400 (Sigma, cat#91893) and HP-P-P-CD (Sigma, cat#C0926)] to assess the prophylactic and therapeutic effects of the MIF098 on the inflammation and NBFs in the SpA mouse model until 8 weeks post-curdlan treatment. Anti-mouse Gr-1 antibody (100 μg/mouse, Life Technologies) or isotype IgG monoclonal antibodies (100 μg/mouse, Life Technologies) were administered on day 3, 6, 9, 12 and 15 post-curdlan treatment.
(§3) Clinical scores for SpA-related manifestations were assessed based on severity scales (Table 1); arthritis, maximum 6 points; dermatitis, maximum 2 points; blepharitis, maximum 2 points). The scores were evaluated at least 2 independent scorers in a blinded fashion and final scores were the average of the observations. At the endpoint, ankle joints, spleen and lymph nodes (PLNs and MLNs) were dissected for FACS, one ankle was dissected prior to storage in RNA later for qPCR unless used for FACS, the other ankle was kept intact and fixed in 10% neutral buffered formalin for histopathological assessments. The upper tail spine, pelvis, eyes and ileum were dissected and fixed in 10% neutral buffered formalin for histopathology. For ankle digestion, skin was peeled off and toes (at distal phalanges) and tibia (˜0.5 cm above tibia) were cut off. After flushing bone marrow, the tissue was digested with RPMI culture media containing hyaluronidase and collagenase type VIII for 1 h at 37° C. in incubator. Following passing through 70 μm of cell strainer and RBC lysis treatment, cells were centrifuged and used for FACS analysis.
For all panels, single cell suspensions were first stained with a fixable live dead stain (L/D NIR, Invitrogen, cat#L10119) as directed by the manufacturers. Cells were blocked with FcX (BioLegend, cat#101320) or Monocyte Blocker (BioLegend, cat#426102) prior to staining with surface antibodies. For experiments in which transcription factors were stained, cells were fixed and permeabilized with True-Nuclear kit (BioLegend, cat#424401) as directed. For experiments in which cytokines were stained, cells were fixed with a PFA buffer and permeabilized with intracellular staining buffer (BioLegend, cat#420801 and cat#421002) as indicated. Brefeldin A (BioLegend, cat#420601) with or without PMA/ionomycin (BioLegend, cat#423302) were used for in vitro stimulations to detect intracellular cytokines. Data were acquired on LSR II or Canto II (BD) and analyzed with FlowJo (version 10.6, Becton Dickinson).

[3] = tested on: curdlan-treated SKG mice; experiment: Curdlan-treated SKG mouse model of SpA: clinical scores, histopathology, microCT; type: in vivo
Procedure: as §1
#1. Animal model, treatments and clinical scoring: Female and male SKG mice (age 8-10 weeks) were injected with PBS, curdlan (3 mg/mouse, i.p.), MIF-plasmid (EEV, 5 μg/mouse, i.v., from systemic biosciences), or control-plasmid (5 μg/mouse, i.v., from systemic biosciences) to induce SpA phenotype and weekly observed the clinical manifestations of inflammation and NBFs over 8 weeks (n=10 mice/group). C57BL/6 and BALB/c mice (age 8-10 weeks) were also subjected to MIF- or control-plasmid injection to observe clinical symptoms. MIF- or control plasmid was administered by HDD tail vein injection as previously described (11). We also generated Mif−/− (KO) SKG mice by crossing SKG mice and BALB/c Mif KO mice (22).
as §2, §3
Ankle joints, tail spine, and pelvis were fixed in 10% neutral buffered formalin for at least 72 h, decalcified in 10% EDTA (BioShop) for 14-21 days and embedded in paraffin. Eyes and ileum were fixed in formalin for at least 72 h without decalcification. Serial sections (4 μm) were stained with hematoxylin and eosin (H&E; Fisher Scientific). To assess endochondral ossification, safranin O/ fast green staining was also applied to NBF in distal tibia as previously described (24, 25). For histological scores, multiple sections (three sections approximately 40-80 μm apart) per joint sample were evaluated by 2 independent scorers in a blinded fashion according to histological assessments as previously reported (11, 24). […]

[4] = tested on: human Tregs; experiment: Th17 acquisition assay in human Tregs and cytokine measurement; type: cell-based; conditions: rhMIF 50 ng/ml, 12 days
Procedure: Human naïve CD4+ T cells and Tregs (CD4+CD25+CD127low) were isolated from PBMCs of healthy male controls without any history of back pain, arthritis, and joint injuries (age: 18-40, n=4 individuals in total) using the human naïve T cells isolation kit (STEM CELL, Cat #19555) and Treg isolation kit (STEM CELL, cat#18063), respectively. Isolated human Tregs (3×10^4 cells/well) were cultured in the complete IMDM culture media containing ImmunoCult™ Human CD3/CD28/CD2 T Cell Activator (25 μl/ml, STEMCELL, cat#10970), and rhIL-2 (100 IU/ml, BioLegend, cat#589102) alone or in combination with or without rhMIF (50 ng/ml, BioLegend, cat#599404), rhIL-1β (25 ng/ml, BioLegend, cat#579402) and rhIL-23 (100 ng/ml, BioLegend, cat#574102) for 12 days. Each culture media was replaced ever 2-3 days. The cells were used for further analysis.
Released cytokine in cell culture supernatant on day 12 was quantified using the LEGENDplex Human Th17 Cytokine Panel (BioLegend, cat#741032) according to the manufacturer's instructions.
For all panels, single cell suspensions were first stained with a fixable live dead stain (L/D NIR, Invitrogen, cat#L10119) as directed by the manufacturers. Cells were blocked with FcX (BioLegend, cat#101320) or Monocyte Blocker (BioLegend, cat#426102) prior to staining with surface antibodies. For experiments in which transcription factors were stained, cells were fixed and permeabilized with True-Nuclear kit (BioLegend, cat#424401) as directed. […] Data were acquired on LSR II or Canto II (BD) and analyzed with FlowJo (version 10.6, Becton Dickinson).
The concentration of MIF in SKG mice or culture supernatant media and the concentration of IL-17A in the human Tregs culture media were assessed by mouse MIF ELISA kit (LEGEND MAX™ Mouse MIF ELISA Kit, BioLegend, cat# 44107) and Human IL-17A ELISA kit (LEGEND MAX™ Human IL-17A ELISA Kit, BioLegend, cat# 433917) were used, respectively. Samples were analyzed according to the manufacture's instruction.

[5] = SKG SpA mouse model, summary of Example 1
[6] = prophylactic MIF098, 8 weeks post-curdlan, vs CTL
[7] = prophylactic: MIF098 40 mg/kg i.p. twice daily from 1 to 8 weeks post-curdlan, female SKG mice, vs CTL

CC(C)C(=O)c1c(C(C)C)nn2ccccc12 [Ibudilast, 2-methyl-1-(2-propan-2-ylpyrazolo[1,5-a]pyridin-3-yl)propan-1-one]
toxicity in clinical trials ([1]; clinical trials for asthma and multiple sclerosis): minimal toxicity
safety ([1]; single 30-mg dose followed by 14 days of 30 mg b.i.d, healthy adults): generally safe

C=C1Cc2ccc(C)cc2C1Cc1cccc(C)c1 (stereo not shown) [MIF098]
populations of Th17 [2, 5]: decreased populations of Th17
regulatory T (Treg) cells [2, 5]: increased
RORγt+Foxp3+CD4+ T cells ([2]; curdlan-treated SKG mice, 8 weeks post-curdlan, vs CTL): decreased
frequency of ILC3s in PLNs [2, 6]: significantly deceased
frequency of Th17 lineage cells in PLNs [2, 6]: significantly deceased
percentage of Th17 lineage cells in spleen [2, 6]: no significant difference
percentage of Tregs (PLNs) [2, 6]: significant increase
percentage of Tregs in spleen [2, 6]: significant increase
percentage of inflammatory macrophages in the ankle joints [2, 6]: no difference between groups
percentage of patrolling macrophages in the ankle joints [2, 6]: increase
ILC2s ([2]; prophylactic MIF098, curdlan-treated SKG mice, vs CTL): remarkably increased
SpA clinical manifestations (colitis, psoriasis, arthritis in axial and peripheral joints) ([3]; SKG SpA mouse model, MIF blockade): dramatically suppressed or attenuated
inflammation in the ankle, tail spine, sacroiliac joints, and ileum (histology and histopathology scoring) ([3]; prophylactic, 8 weeks post-curdlan, vs CTL): Lower severity of inflammation
new bone formation (NBF), microCT imaging and histological assessments ([3]; prophylactic, distal tibia, 8 weeks post-curdlan, vs CTL): did not display an evident NBF
severity of blepharitis (clinical score) [3, 7]: reduced severity
severity of psoriasis-like dermatitis (clinical score) [3, 7]: reduced severity
severity of arthritis (clinical score) ([3]; prophylactic: MIF098 40 mg/kg i.p. twice daily from 1 to 8 weeks post-curdlan, female SKG mice, vs vehicle control (CTL)): reduced severity
severity of psoriasis-like dermatitis ([3]; therapeutic: MIF098 from 4 weeks to 8 weeks post-curdlan, female SKG mice, vs CTL): reduced the severity
new bone formation (NBF), histological assessments ([3]; therapeutic: MIF098 from 4 weeks to 8 weeks post-curdlan, vs CTL): reduced
severity of arthritis ([3]; therapeutic: MIF098 injected from 4 weeks to 8 weeks post-curdlan, female SKG mice, vs CTL): reduced the severity

B1: rhMIF: recombinant human MIF (BioLegend) used to stimulate human Tregs (protein, UniProt P14174 2-115, looked up)
Macrophage migration …: PMFIVNTNVPRASVPDGFLSELTQQLAQATGKPPQYIAVHVVPDQLMAFGGSSEPCALCSLHSIGKIGGAQNRSYSKLLCGLLAERLRISPDRVYINYYDMNAANVGWNNSTFA
release of IL-6 [4]: without increased release
frequency of RORγt+CD4+ T cells from Tregs ([4]; in the presence of IL1β and IL23, vs without rhMIF): increased
secretion of IL-17A into the culture media ([4]; vs control-treated Tregs): significantly higher
